Data taken from patent publication US9376425B2, “Heterocyclic compounds as MDM2 inhibitors for the treatment of cancer” (AMGEN INC., priority 2011, dated 2016).

Biological target: T1, human MDM2 (GST-hMDM2 1-188), interaction with biotinylated-p53 (1-83) (Homo sapiens, UniProt Q00987)
T1 construct: Amino acid residues 1-188 of human MDM2 were expressed; made in house; host or cells: Escherichia coli
Assay: improved HTRF assay (HTRF2 assay), inhibition of HDM2-p53 interaction
Format: binding
Settings: 0.2 nM GST-hMDM2, 0.5 nM biotinylated-p53, 100 mM KF
In short: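 Time-resolved fluorescence (HTRF) read after >4 h equilibration with SA-XLent/anti-GST cryptate/KF detection reagents. Reaction: compound plus GST-hMDM2 for 20 min at room temperature, then E. coli-expressed biotinylated p53 residues 1-83 for 60 min, 2% DMSO final. Inhibition expressed versus nutlin-3.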

T1 sequence (Q00987 1-188): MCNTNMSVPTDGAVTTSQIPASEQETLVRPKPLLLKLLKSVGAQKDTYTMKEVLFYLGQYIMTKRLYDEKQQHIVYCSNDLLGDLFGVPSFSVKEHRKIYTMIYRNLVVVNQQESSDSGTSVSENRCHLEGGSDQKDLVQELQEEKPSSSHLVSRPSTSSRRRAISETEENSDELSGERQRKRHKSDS

SMILES	IC50 [nM]
CC[C@@H](CS(=O)(=O)c1ccccn1)N1C(=O)[C@@H](CC(=O)O)O[C@H](c2cccc(Cl)c2)[C@H]1c1ccc(Cl)cc1 (single isomer, unassigned) [Example 203, 2-((2R,5R,6R)-6-(3-chlorophenyl)-5-(4-chlorophenyl)-3-oxo-4-((S)-1-(pyridin-2-ylsulfonyl)butan-2-yl)morpholin-2-yl)acetic acid or 2-((2S,5R,6R)-6-(3-chlorophenyl)-5-(4-chlorophenyl)-3-oxo-4-((S)-1-(pyridin-2-ylsulfonyl)butan-2-yl)morpholin-2-yl)acetic acid]	20
CC[C@@H](CS(=O)(=O)N1CCC[C@@H]1C)N1C(=O)[C@@H](CC(=O)O)O[C@H](c2cccc(Cl)c2)[C@H]1c1ccc(Cl)cc1 (single isomer, unassigned) [Example 208, 2-((2R,5R,6R)-6-(3-chlorophenyl)-5-(4-chlorophenyl)-4-((S)-1-(((S)-2-methylpyrrolidin-1-yl)sulfonyl)butan-2-yl)-3-oxomorpholin-2-yl)acetic acid or 2-((2S,5R,6R)-6-(3-chlorophenyl)-5-(4-chlorophenyl)-4-((S)-1-(((S)-2-methylpyrrolidin-1-yl)sulfonyl)butan-2-yl)-3-oxomorpholin-2-yl)acetic acid]	2
CC[C@@H](CS(=O)(=O)N1CCC[C@@H]1C)N1C(=O)[C@@H](CC(=O)O)O[C@H](c2cccc(Cl)c2)[C@H]1c1ccc(Cl)cc1 (single isomer, unassigned) [Example 209, 2-((2R,5R,6R)-6-(3-chlorophenyl)-5-(4-chlorophenyl)-4-((S)-1-(((S)-2-methylpyrrolidin-1-yl)sulfonyl)butan-2-yl)-3-oxomorpholin-2-yl)acetic acid or 2-((2S,5R,6R)-6-(3-chlorophenyl)-5-(4-chlorophenyl)-4-((S)-1-(((S)-2-methylpyrrolidin-1-yl)sulfonyl)butan-2-yl)-3-oxomorpholin-2-yl)acetic acid]	7
CC[C@@H](CS(=O)(=O)N1CCC[C@H]1C)N1C(=O)[C@@H](CC(=O)O)O[C@H](c2cccc(Cl)c2)[C@H]1c1ccc(Cl)cc1 (single isomer, unassigned) [Example 210, 2-((2R,5R,6R)-6-(3-chlorophenyl)-5-(4-chlorophenyl)-4-((S)-1-(((R)-2-methylpyrrolidin-1-yl)sulfonyl)butan-2-yl)-3-oxomorpholin-2-yl)acetic acid or 2-((2S,5R,6R)-6-(3-chlorophenyl)-5-(4-chlorophenyl)-4-((S)-1-(((R)-2-methylpyrrolidin-1-yl)sulfonyl)butan-2-yl)-3-oxomorpholin-2-yl)acetic acid]	1
CC[C@@H](CS(=O)(=O)N1CCC[C@H]1C)N1C(=O)[C@@H](CC(=O)O)O[C@H](c2cccc(Cl)c2)[C@H]1c1ccc(Cl)cc1 (single isomer, unassigned) [Example 211, 2-((2R,5R,6R)-6-(3-chlorophenyl)-5-(4-chlorophenyl)-4-((S)-1-(((R)-2-methylpyrrolidin-1-yl)sulfonyl)butan-2-yl)-3-oxomorpholin-2-yl)acetic acid or 2-((2S,5R,6R)-6-(3-chlorophenyl)-5-(4-chlorophenyl)-4-((S)-1-(((R)-2-methylpyrrolidin-1-yl)sulfonyl)butan-2-yl)-3-oxomorpholin-2-yl)acetic acid]	4
CC[C@@H](CS(=O)(=O)C1CC1)N1C(=O)[C@@H](CC(=O)O)O[C@H](c2cccc(Cl)c2)[C@H]1c1ccc(Cl)cc1 (single isomer, unassigned) [Example 212, 2-((2R,5R,6R)-6-(3-chlorophenyl)-5-(4-chlorophenyl)-4-((S)-1-(cyclopropylsulfonyl)butan-2-yl)-3-oxomorpholin-2-yl)acetic acid or 2-((2S,5R,6R)-6-(3-chlorophenyl)-5-(4-chlorophenyl)-4-((S)-1-(cyclopropylsulfonyl)butan-2-yl)-3-oxomorpholin-2-yl)acetic acid]	2
CC[C@@H](CS(=O)(=O)C1CC1)N1C(=O)[C@@H](CC(=O)O)O[C@H](c2cccc(Cl)c2)[C@H]1c1ccc(Cl)cc1 (single isomer, unassigned) [Example 213, 2-((2R,5R,6R)-6-(3-chlorophenyl)-5-(4-chlorophenyl)-4-((S)-1-(cyclopropylsulfonyl)butan-2-yl)-3-oxomorpholin-2-yl)acetic acid or 2-((2S,5R,6R)-6-(3-chlorophenyl)-5-(4-chlorophenyl)-4-((S)-1-(cyclopropylsulfonyl)butan-2-yl)-3-oxomorpholin-2-yl)acetic acid]	5
CC[C@@H](CN(c1ccccc1F)S(=O)(=O)C1CC1)N1C(=O)[C@@H](CC(=O)O)O[C@H](c2cccc(Cl)c2)[C@H]1c1ccc(Cl)s1 (single isomer, unassigned) [Example 216, 2-((2R,5S,6R)-6-(3-chlorophenyl)-5-(5-chlorothiophen-2-yl)-4-((S)-1-(N-(2-fluorophenyl)cyclopropanesulfonamido)butan-2-yl)-3-oxomorpholin-2-yl)acetic acid or 2-((2S,5S,6R)-6-(3-chlorophenyl)-5-(5-chlorothiophen-2-yl)-4-((S)-1-(N-(2-fluorophenyl)cyclopropanesulfonamido)butan-2-yl)-3-oxomorpholin-2-yl)acetic acid]	< 1
CC[C@@H](CN(c1ccccc1F)S(=O)(=O)C1CC1)N1C(=O)[C@@H](CC(=O)O)O[C@H](c2cccc(Cl)c2)[C@H]1c1ccc(Cl)s1 (single isomer, unassigned) [Example 217, 2-((2R,5S,6R)-6-(3-chlorophenyl)-5-(5-chlorothiophen-2-yl)-4-((S)-1-(N-(2-fluorophenyl)cyclopropanesulfonamido)butan-2-yl)-3-oxomorpholin-2-yl)acetic acid or 2-((2S,5S,6R)-6-(3-chlorophenyl)-5-(5-chlorothiophen-2-yl)-4-((S)-1-(N-(2-fluorophenyl)cyclopropanesulfonamido)butan-2-yl)-3-oxomorpholin-2-yl)acetic acid]	< 1
CC[C@@H](CS(=O)(=O)C(C)(C)C)N1C(=O)[C@@H](CC(=O)O)O[C@H](c2cccc(Cl)c2)[C@H]1c1ccc(Cl)s1 (single isomer, unassigned) [Example 218, 2-((2R,5S,6R)-4-((S)-1-(tert-butylsulfonyl)butan-2-yl)-6-(3-chlorophenyl)-5-(5-chlorothiophen-2-yl)-3-oxomorpholin-2-yl)acetic acid or 2-((2S,5S,6R)-4-((S)-1-(tert-butylsulfonyl)butan-2-yl)-6-(3-chlorophenyl)-5-(5-chlorothiophen-2-yl)-3-oxomorpholin-2-yl)acetic acid]	1
CC[C@@H](CS(=O)(=O)C(C)(C)C)N1C(=O)[C@@H](CC(=O)O)O[C@H](c2cccc(Cl)c2)[C@H]1c1ccc(Cl)s1 (single isomer, unassigned) [Example 219, 2-((2R,5S,6R)-4-((S)-1-(tert-butylsulfonyl)butan-2-yl)-6-(3-chlorophenyl)-5-(5-chlorothiophen-2-yl)-3-oxomorpholin-2-yl)acetic acid or 2-((2S,5S,6R)-4-((S)-1-(tert-butylsulfonyl)butan-2-yl)-6-(3-chlorophenyl)-5-(5-chlorothiophen-2-yl)-3-oxomorpholin-2-yl)acetic acid]	1
CC[C@@H](CCS(=O)(=O)C(C)(C)C)N1C(=O)[C@@H](CC(=O)O)O[C@H](c2cccc(Cl)c2)[C@H]1c1ccc(Cl)cc1 (single isomer, unassigned) [Example 220, 2-((2R,5R,6R)-4-((S)-1-(tert-butylsulfonyl)pentan-3-yl)-6-(3-chlorophenyl)-5-(4-chlorophenyl)-3-oxomorpholin-2-yl)acetic acid or 2-((2S,5R,6R)-4-((S)-1-(tert-butylsulfonyl)pentan-3-yl)-6-(3-chlorophenyl)-5-(4-chlorophenyl)-3-oxomorpholin-2-yl)acetic acid]	9
CC[C@@H](CCS(=O)(=O)C(C)(C)C)N1C(=O)[C@@H](CC(=O)O)O[C@H](c2cccc(Cl)c2)[C@H]1c1ccc(Cl)cc1 (single isomer, unassigned) [Example 221, 2-((2R,5R,6R)-4-((S)-1-(tert-butylsulfonyl)pentan-3-yl)-6-(3-chlorophenyl)-5-(4-chlorophenyl)-3-oxomorpholin-2-yl)acetic acid or 2-((2S,5R,6R)-4-((S)-1-(tert-butylsulfonyl)pentan-3-yl)-6-(3-chlorophenyl)-5-(4-chlorophenyl)-3-oxomorpholin-2-yl)acetic acid]	12
C[C@@H](CS(=O)(=O)C(C)(C)C)N1C(=O)[C@@H](CC(N)=O)O[C@H](c2cccc(Cl)c2)[C@H]1c1ccc(Cl)cc1 (single isomer, unassigned) [Example 225, 2-((2R,5R,6R)-4-((S)-1-(tert-butylsulfonyl)propan-2-yl)-6-(3-chlorophenyl)-5-(4-chlorophenyl)-3-oxomorpholin-2-yl)acetamide or 2-((2S,5R,6R)-4-((S)-1-(tert-butylsulfonyl)propan-2-yl)-6-(3-chlorophenyl)-5-(4-chlorophenyl)-3-oxomorpholin-2-yl)acetamide]	6
C[C@@H](CS(=O)(=O)C(C)(C)C)N1C(=O)[C@H](CC(N)=O)O[C@H](c2cccc(Cl)c2)[C@H]1c1ccc(Cl)cc1 (single isomer, unassigned) [Example 226, 2-((2S,5R,6R)-4-((S)-1-(tert-butylsulfonyl)propan-2-yl)-6-(3-chlorophenyl)-5-(4-chlorophenyl)-3-oxomorpholin-2-yl)acetamide or 2-((2R,5R,6R)-4-((S)-1-(tert-butylsulfonyl)propan-2-yl)-6-(3-chlorophenyl)-5-(4-chlorophenyl)-3-oxomorpholin-2-yl)acetamide]	11
